Assays:
Assay in all cases: relative viability (nuclei count vs DMSO), 5 days (fraction); higher = more cells survive
[1] = compound: COc1cc2c(Oc3ccc4[nH]c(C)cc4c3F)ncnc2cc1OCCCN1CCCC1 [Cediranib] + Cc1cc(Nc2cc(N3CCN(C)CC3)nc(Sc3ccc(NC(=O)C4CC4)cc3)n2)n[nH]1 [Tozasertib] (partner 0.1 µM)
Method in brief: (§1)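 Lung cancer cell lines in 1536-well plates got either a single drug or a fixed anchor-drug dose together with five library-drug doses (not always all listed) in √10 steps, by pin tool, on the day after seeding. Nuclei were counted after 5 days, and relative viability is the treated-to-vehicle ratio of nuclei counts. Values are medians of duplicate plates.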

[2] = compound: COc1cc2c(Oc3ccc4[nH]c(C)cc4c3F)ncnc2cc1OCCCN1CCCC1 [Cediranib] + CC1(C)CCC(c2ccc(Cl)cc2)=C(CN2CCN(c3ccc(C(=O)NS(=O)(=O)c4ccc(N[C@H](CCN5CCOCC5)CSc5ccccc5)c(S(=O)(=O)C(F)(F)F)c4)cc3)CC2)C1 [Navitoclax] (partner 0.5 µM)
Method in brief: as §1

[3] = compound: Nc1ncn([C@H]2C[C@H](O)[C@@H](CO)O2)c(=O)n1 [Decitabine] + O=C(CCCCCCC(=O)Nc1ccccc1)NO [Vorinostat] (partner 1 µM)
Method in brief: as §1

[4] = compound: O=C(C[C@H]1NCCC[C@@H]1O)Cn1cnc2cc(Br)c(Cl)cc2c1=O (racemic) [Halofuginone] + CS(=O)(=O)N1CCN(Cc2cc3nc(-c4cccc5[nH]ncc45)nc(N4CCOCC4)c3s2)CC1 [Pictilisib] (partner 1 µM)
Method in brief: as §1

NCI-H441
relative viability ([1]; first compound 0.04 µM): 0.787
relative viability ([1]; first compound 0.4 µM): 0.545
relative viability ([1]; first compound 1.265 µM): 0.55
relative viability ([1]; first compound 4 µM): 0.677
relative viability ([2]; first compound 0.04 µM): 0.466
relative viability ([2]; first compound 0.1265 µM): 0.63
relative viability ([2]; first compound 1.265 µM): 0.763
relative viability ([2]; first compound 4 µM): 0.573
relative viability ([3]; first compound 0.04 µM): 0.211
relative viability ([3]; first compound 0.1265 µM): 0.281
relative viability ([3]; first compound 0.4 µM): 0.249
relative viability ([3]; first compound 1.265 µM): 0.169
relative viability ([3]; first compound 4 µM): 0.181
relative viability ([4]; first compound 0.001 µM): 0.482
relative viability ([4]; first compound 0.003162 µM): 0.466
relative viability ([4]; first compound 0.01 µM): 0.489
relative viability ([4]; first compound 0.03162 µM): 0.415
relative viability ([4]; first compound 0.1 µM): 0.385

NCI-H460
relative viability ([1]; first compound 0.04 µM): 0.494
relative viability ([1]; first compound 0.1265 µM): 0.391
relative viability ([1]; first compound 0.4 µM): 0.429
relative viability ([1]; first compound 1.265 µM): 0.603
relative viability ([1]; first compound 4 µM): 0.355
relative viability ([2]; first compound 0.04 µM): 1.12
relative viability ([2]; first compound 0.1265 µM): 1.1
relative viability ([2]; first compound 0.4 µM): 0.938
relative viability ([2]; first compound 1.265 µM): 0.993
relative viability ([2]; first compound 4 µM): 1.33
relative viability ([3]; first compound 0.04 µM): 0.669
relative viability ([3]; first compound 0.1265 µM): 0.64
relative viability ([3]; first compound 0.4 µM): 0.293
relative viability ([3]; first compound 1.265 µM): 0.214
relative viability ([3]; first compound 4 µM): 0.0759
relative viability ([4]; first compound 0.001 µM): 0.393
relative viability ([4]; first compound 0.003162 µM): 0.345
relative viability ([4]; first compound 0.01 µM): 0.336
relative viability ([4]; first compound 0.03162 µM): 0.345
relative viability ([4]; first compound 0.1 µM): 0.299

NCI-H520
relative viability ([1]; first compound 0.04 µM): 0.57
relative viability ([1]; first compound 0.1265 µM): 0.35
relative viability ([1]; first compound 0.4 µM): 0.543
relative viability ([1]; first compound 4 µM): 0.426
relative viability ([2]; first compound 0.04 µM): 1.15
relative viability ([2]; first compound 0.4 µM): 0.926
relative viability ([2]; first compound 1.265 µM): 1.09
relative viability ([2]; first compound 4 µM): 1.2
relative viability ([3]; first compound 0.04 µM): 0.622
relative viability ([3]; first compound 0.1265 µM): 0.627
relative viability ([3]; first compound 0.4 µM): 0.413
relative viability ([3]; first compound 1.265 µM): 0.397
relative viability ([3]; first compound 4 µM): 0.296
relative viability ([4]; first compound 0.001 µM): 0.301
relative viability ([4]; first compound 0.003162 µM): 0.295
relative viability ([4]; first compound 0.01 µM): 0.281
relative viability ([4]; first compound 0.03162 µM): 0.243
relative viability ([4]; first compound 0.1 µM): 0.181

NCI-H596
relative viability ([1]; first compound 0.04 µM): 1.13
relative viability ([1]; first compound 0.1265 µM): 0.891
relative viability ([1]; first compound 0.4 µM): 0.782
relative viability ([1]; first compound 4 µM): 0.986
relative viability ([2]; first compound 0.04 µM): 0.943
relative viability ([2]; first compound 0.1265 µM): 0.926
relative viability ([2]; first compound 0.4 µM): 0.938
relative viability ([2]; first compound 1.265 µM): 0.879
relative viability ([2]; first compound 4 µM): 0.996
relative viability ([3]; first compound 0.04 µM): 0.613
relative viability ([3]; first compound 0.1265 µM): 0.618
relative viability ([3]; first compound 0.4 µM): 0.553
relative viability ([3]; first compound 1.265 µM): 0.51
relative viability ([3]; first compound 4 µM): 0.507
relative viability ([4]; first compound 0.001 µM): 0.423
relative viability ([4]; first compound 0.003162 µM): 0.431
relative viability ([4]; first compound 0.01 µM): 0.388
relative viability ([4]; first compound 0.03162 µM): 0.423
relative viability ([4]; first compound 0.1 µM): 0.3

NCI-H647
relative viability ([1]; first compound 0.04 µM): 0.306
relative viability ([1]; first compound 0.1265 µM): 0.225
relative viability ([1]; first compound 0.4 µM): 0.3
relative viability ([1]; first compound 1.265 µM): 0.227
relative viability ([1]; first compound 4 µM): 0.255
relative viability ([2]; first compound 0.04 µM): 1.11
relative viability ([2]; first compound 0.4 µM): 1.16
relative viability ([2]; first compound 1.265 µM): 1.12
relative viability ([2]; first compound 4 µM): 1.14
relative viability ([3]; first compound 0.04 µM): 0.327
relative viability ([3]; first compound 0.1265 µM): 0.219
relative viability ([3]; first compound 0.4 µM): 0.269
relative viability ([3]; first compound 1.265 µM): 0.109
relative viability ([3]; first compound 4 µM): 0.105
relative viability ([4]; first compound 0.001 µM): 0.543
relative viability ([4]; first compound 0.003162 µM): 0.425
relative viability ([4]; first compound 0.01 µM): 0.459
relative viability ([4]; first compound 0.03162 µM): 0.418
relative viability ([4]; first compound 0.1 µM): 0.33

NCI-H727
relative viability ([1]; first compound 0.1265 µM): 0.591
relative viability ([1]; first compound 0.4 µM): 0.536
relative viability ([1]; first compound 1.265 µM): 0.762
relative viability ([1]; first compound 4 µM): 0.549
relative viability ([2]; first compound 0.04 µM): 0.404
relative viability ([2]; first compound 0.1265 µM): 0.409
relative viability ([2]; first compound 0.4 µM): 0.38
relative viability ([2]; first compound 1.265 µM): 0.532
relative viability ([2]; first compound 4 µM): 0.583
relative viability ([3]; first compound 0.04 µM): 1.08
relative viability ([3]; first compound 0.1265 µM): 0.973
relative viability ([3]; first compound 0.4 µM): 0.664
relative viability ([3]; first compound 1.265 µM): 0.835
relative viability ([3]; first compound 4 µM): 1.1
relative viability ([4]; first compound 0.001 µM): 0.428
relative viability ([4]; first compound 0.003162 µM): 0.444
relative viability ([4]; first compound 0.01 µM): 0.359
relative viability ([4]; first compound 0.03162 µM): 0.421
relative viability ([4]; first compound 0.1 µM): 0.194

NCI-H838
relative viability ([1]; first compound 0.04 µM): 0.272
relative viability ([1]; first compound 0.1265 µM): 0.264
relative viability ([1]; first compound 0.4 µM): 0.229
relative viability ([1]; first compound 1.265 µM): 0.297
relative viability ([1]; first compound 4 µM): 0.276
relative viability ([2]; first compound 0.04 µM): 1.17
relative viability ([2]; first compound 0.1265 µM): 1.07
relative viability ([2]; first compound 0.4 µM): 1.17
relative viability ([2]; first compound 1.265 µM): 1.1
relative viability ([2]; first compound 4 µM): 1.41
relative viability ([3]; first compound 0.04 µM): 0.701
relative viability ([3]; first compound 0.1265 µM): 0.595
relative viability ([3]; first compound 0.4 µM): 0.641
relative viability ([3]; first compound 1.265 µM): 0.383
relative viability ([3]; first compound 4 µM): 0.34
relative viability ([4]; first compound 0.001 µM): 0.478
relative viability ([4]; first compound 0.003162 µM): 0.481
relative viability ([4]; first compound 0.01 µM): 0.42
relative viability ([4]; first compound 0.03162 µM): 0.37
relative viability ([4]; first compound 0.1 µM): 0.134

NCI-H1355
relative viability ([1]; first compound 0.04 µM): 0.548
relative viability ([1]; first compound 0.1265 µM): 0.684
relative viability ([1]; first compound 0.4 µM): 0.482
relative viability ([1]; first compound 1.265 µM): 0.564
relative viability ([1]; first compound 4 µM): 0.492
relative viability ([2]; first compound 0.04 µM): 0.94
relative viability ([2]; first compound 0.1265 µM): 0.954
relative viability ([2]; first compound 0.4 µM): 0.898
relative viability ([2]; first compound 1.265 µM): 0.936
relative viability ([2]; first compound 4 µM): 1.04
relative viability ([3]; first compound 0.04 µM): 0.496
relative viability ([3]; first compound 0.1265 µM): 0.554
relative viability ([3]; first compound 0.4 µM): 0.34
relative viability ([3]; first compound 1.265 µM): 0.3
relative viability ([3]; first compound 4 µM): 0.256
relative viability ([4]; first compound 0.001 µM): 0.444
relative viability ([4]; first compound 0.003162 µM): 0.424
relative viability ([4]; first compound 0.01 µM): 0.458
relative viability ([4]; first compound 0.03162 µM): 0.501
relative viability ([4]; first compound 0.1 µM): 0.376
